Laboratory results as given in PubChem BioAssay AID328 (DTP/NCI, 2004).
Values joined by “and” are separate entries in the source; they are usually repeats but may differ in a detail not shown here. Equal entries are not always repeated. Toxic doses and inconclusive results are not listed.

System: BDF1 mice, P388 leukemia ip, median survival T/C
Assay: NCI In Vivo Anticancer Drug Screen. Data for tumor model P388 Leukemia (intraperitoneal) in B6D2F1 (BDF1) mice
Conditions: endpoint: median survival time, higher = longer survival
Method in brief: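 In tumour-bearing mice, survival after compound treatment is set against the vehicle group and given as a quotient.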

[1] = dose: 100.0 mg/kg/injection, schedule: Q04DX003 (ip), vehicle: saline with Tween-80
[2] = dose: 200.0 mg/kg/injection, schedule: Q04DX003 (ip), vehicle: saline with Tween-80
[3] = dose: 400.0 mg/kg/injection, schedule: Q04DX003 (ip), vehicle: saline with Tween-80
[4] = dose: 50.0 mg/kg/injection, schedule: Q01DX009 (ip), vehicle: saline with Tween-80
[5] = dose: 100.0 mg/kg/injection, schedule: Q01DX009 (ip), vehicle: saline with Tween-80
[6] = dose: 200.0 mg/kg/injection, schedule: Q01DX009 (ip), vehicle: saline with Tween-80
[7] = dose: 100.0 mg/kg/injection, schedule: Q01DX001 (ip), vehicle: saline with Tween-80
[8] = dose: 50.0 mg/kg/injection, schedule: Q01DX009 (ip), vehicle: water
[9] = dose: 50.0 mg/kg/injection, schedule: Q04DX003 (ip), vehicle: water
[10] = dose: 100.0 mg/kg/injection, schedule: Q01DX009 (ip), vehicle: water
[11] = dose: 100.0 mg/kg/injection, schedule: Q04DX003 (ip), vehicle: water
[12] = dose: 200.0 mg/kg/injection, schedule: Q01DX009 (ip), vehicle: water
[13] = dose: 200.0 mg/kg/injection, schedule: Q04DX003 (ip), vehicle: water
[14] = dose: 400.0 mg/kg/injection, schedule: Q01DX009 (ip), vehicle: water
[15] = dose: 400.0 mg/kg/injection, schedule: Q04DX003 (ip), vehicle: water
[16] = dose: 25.0 mg/kg/injection, schedule: Q01DX009 (ip), vehicle: saline with Tween-80
[17] = dose: 12.5 mg/kg/injection, schedule: Q01DX009 (ip), vehicle: saline with Tween-80
[18] = dose: 25.0 mg/kg/injection, schedule: Q01DX009 (ip), vehicle: Klucel (hydroxypropylcellulose) (HPC)
[19] = dose: 25.0 mg/kg/injection, schedule: Q04DX003 (ip), vehicle: saline
[20] = dose: 100.0 mg/kg/injection, schedule: Q04DX003 (ip), vehicle: Klucel (hydroxypropylcellulose) (HPC)
[21] = dose: 200.0 mg/kg/injection, schedule: Q04DX003 (ip), vehicle: Klucel (hydroxypropylcellulose) (HPC)

What does the source list for `CC(NC(=O)/C=C\C(=O)O)c1ccccc1` (configuration not stated)?
T/C [1]: 100 % of control; T/C [2]: 91 % of control; T/C [3]: 112 % of control

`CCNNC(=O)[C@@H]1[C@H](c2cc(OC)c(OC)c(OC)c2)c2cc3c(cc2[C@H](O)[C@H]1CO)OCO3` was tested. Which T/C (dose: 12.5 mg/kg/injection, schedule: Q01DX009 (ip), vehicle: saline) did it give?
The T/C was 109 % of control.

And the T/C (dose: 25.0 mg/kg/injection, schedule: Q01DX009 (ip), vehicle: saline)?
The T/C was 100 % of control.

And the T/C [4]?
Its T/C is 116 % of control.

And the T/C (dose: 50.0 mg/kg/injection, schedule: Q01DX009 (ip), vehicle: saline)?
Its T/C is 122 % of control.

What about the T/C [5] of the same compound?
Its T/C is 90 % of control.

What about the T/C [1] of the same compound?
Its T/C is 108 % of control.

What about the T/C [6] of the same compound?
The T/C was 90 % of control.

And the T/C [2]?
Its T/C is 104 % of control.

What does the source list for `CC(C)=NNC(=O)C1CCN1C(c1ccccc1)c1ccccc1` (configuration not stated)?
T/C (dose: 50.0 mg/kg/injection, schedule: Q01DX001 (ip), vehicle: saline with Tween-80): 117 % of control; T/C [7]: 102 % of control

Which T/C (dose: 6.25 mg/kg/injection, schedule: Q01DX009 (ip), vehicle: other) does the source give for `NCCNc1ccc(NCCN)c2c1C(=O)c1ccccc1C2=O` here?
The T/C was 214 % of control.

For `NC(N)=Nc1ccc(C(=O)Oc2ccc(OC(=O)c3cccc(N=C(N)N)c3)cc2)cc1`, which T/C [8] is on record?
Its T/C is 96 % of control.

What about the T/C [9] of the same compound?
Its T/C is 103 % of control.

What about the T/C [10] of the same compound?
Its T/C is 96 % of control.

And the T/C [11]?
Its T/C is 94 % of control.

What about the T/C [12] of the same compound?
The T/C was 99 % of control.

What about the T/C [13] of the same compound?
Its T/C is 100 % of control.

And the T/C [14]?
The T/C was 114 % of control.

What about the T/C [15] of the same compound?
The T/C was 105 % of control.

Which T/C (dose: 2.0 mg/kg/injection, schedule: Q01DX009 (ip), vehicle: saline) does the source give for `NC(=O)CNC1=C(N2CC2)C(=O)C(NCC(N)=O)=C(N2CC2)C1=O` here?
Its T/C is 171 % of control.

And the T/C (dose: 4.0 mg/kg/injection, schedule: Q01DX009 (ip), vehicle: saline)?
The T/C was 166 % of control.

And the T/C (dose: 8.0 mg/kg/injection, schedule: Q01DX009 (ip), vehicle: saline)?
Its T/C is 116 % of control.

For `O=[N+]([O-])c1cc2c(c([N+](=O)[O-])c1)OCOC2`, which T/C [16] is on record?
The T/C was 95 % of control.

What about the T/C [4] of the same compound?
The T/C was 95 % of control.

And the T/C [5]?
The T/C was 86 % of control.

And the T/C [1]?
Its T/C is 100 % of control.

What about the T/C [2] of the same compound?
Its T/C is 95 % of control.

Which T/C [4] does the source give for `O=C1NC(c2cccc3c2OCO3)N=C2Oc3ccccc3C=C12` (configuration not stated) here?
The T/C was 98 % of control.

What about the T/C [5] of the same compound?
The T/C was 93 % of control.

What about the T/C [6] of the same compound?
Its T/C is 93 % of control.

With `c1cc2ccsc2cn1` as the compound, how does the T/C [17] read?
The T/C was 103 % of control.

What about the T/C [16] of the same compound?
Its T/C is 92 % of control.

And the T/C (dose: 25.0 mg/kg/injection, schedule: Q04DX003 (ip), vehicle: saline with Tween-80)?
The T/C was 95 % of control.

And the T/C [4]?
The T/C was 92 % of control.

What about the T/C (dose: 50.0 mg/kg/injection, schedule: Q04DX003 (ip), vehicle: saline with Tween-80) of the same compound?
The T/C was 91 % of control.

`COCn1cnc2c(F)ncnc21` was tested. Which T/C (dose: 6.25 mg/kg/injection, schedule: Q01DX009 (ip), vehicle: Klucel (hydroxypropylcellulose) (HPC)) did it give?
Its T/C is 86 % of control.

And the T/C (dose: 6.25 mg/kg/injection, schedule: Q04DX003 (ip), vehicle: saline)?
The T/C was 95 % of control.

What about the T/C (dose: 12.5 mg/kg/injection, schedule: Q01DX009 (ip), vehicle: Klucel (hydroxypropylcellulose) (HPC)) of the same compound?
Its T/C is 90 % of control.

And the T/C (dose: 12.5 mg/kg/injection, schedule: Q04DX003 (ip), vehicle: saline)?
Its T/C is 109 % of control.

And the T/C [18]?
The T/C was 86 % of control.

And the T/C [19]?
Its T/C is 100 % of control.

For `COc1cc(Cc2nccc3cc(OC)c(OC)cc23)c(C(C)=O)c(OC)c1`, which T/C (dose: 10.0 mg/kg/injection, schedule: Q01DX009 (ip), vehicle: saline) is on record?
Its T/C is 157 % of control and 190 % of control.

And the T/C (dose: 20.0 mg/kg/injection, schedule: Q01DX009 (ip), vehicle: saline)?
Its T/C is 163 % of control and 170 % of control.

And the T/C [19]?
Its T/C is 154 % of control.

What about the T/C (dose: 50.0 mg/kg/injection, schedule: Q04DX003 (ip), vehicle: saline) of the same compound?
Its T/C is 157 % of control.

And the T/C (dose: 100.0 mg/kg/injection, schedule: Q04DX003 (ip), vehicle: saline)?
Its T/C is 203 % of control and 206 % of control.

What about the T/C (dose: 200.0 mg/kg/injection, schedule: Q04DX003 (ip), vehicle: saline) of the same compound?
Its T/C is 93 % of control.

`CC(O)(/C=C\c1ccccc1)c1ccccc1` (configuration not stated) was tested. Which T/C [5] did it give?
The T/C was 105 % of control.

And the T/C [1]?
The T/C was 95 % of control.

And the T/C [6]?
Its T/C is 107 % of control.

And the T/C [2]?
The T/C was 104 % of control.

What about the T/C (dose: 400.0 mg/kg/injection, schedule: Q01DX009 (ip), vehicle: saline with Tween-80) of the same compound?
Its T/C is 105 % of control.

What about the T/C [3] of the same compound?
Its T/C is 104 % of control.

What does the source list for `O=C1NC2(CCCCCC2)C(=O)N1CN1CCOCC1`?
T/C (dose: 25.0 mg/kg/injection, schedule: Q04DX003 (ip), vehicle: saline sonified): 90 % of control; T/C (dose: 50.0 mg/kg/injection, schedule: Q04DX003 (ip), vehicle: saline sonified): 95 % of control; T/C (dose: 100.0 mg/kg/injection, schedule: Q04DX003 (ip), vehicle: saline sonified): 104 % of control

For `CN(C)c1ccc(/C=C\c2ccnc3ccccc23)cc1Br`, which T/C [17] is on record?
The T/C was 107 % of control.

And the T/C [16]?
The T/C was 94 % of control.

What about the T/C [4] of the same compound?
The T/C was 99 % of control.

What about the T/C [5] of the same compound?
Its T/C is 89 % of control.

Which results are given for `O=C(OC1C2C=CC(C(O)O2)C1c1ccccc1)c1ccc(Cl)cc1` (configuration not stated)?
T/C [7]: 94 % of control; T/C (dose: 200.0 mg/kg/injection, schedule: Q01DX001 (ip), vehicle: saline with Tween-80): 92 % of control

What does the source list for `N=C1N=C(C(F)(F)F)N=C1c1[nH]c(C(F)(F)F)nc1N`?
T/C (dose: 3.12 mg/kg/injection, schedule: Q01DX009 (ip), vehicle: water): 105 % of control; T/C (dose: 6.25 mg/kg/injection, schedule: Q01DX009 (ip), vehicle: water): 105 % of control; T/C (dose: 12.5 mg/kg/injection, schedule: Q01DX009 (ip), vehicle: water): 113 % of control; T/C (dose: 25.0 mg/kg/injection, schedule: Q01DX009 (ip), vehicle: water): 103 % of control and 105 % of control; T/C (dose: 25.0 mg/kg/injection, schedule: Q04DX003 (ip), vehicle: water): 100 % of control; T/C [8]: 92 % of control; T/C [9]: 99 % of control; T/C [10]: 106 % of control; T/C [11]: 98 % of control; T/C [12]: 97 % of control; T/C [13]: 94 % of control; T/C [14]: 104 % of control; T/C [15]: 109 % of control

What does the source list for `CC(=O)n1ccnc1/C=C\c1ccc([N+](=O)[O-])s1`?
T/C (dose: 50.0 mg/kg/injection, schedule: Q04DX003 (ip), vehicle: Klucel (hydroxypropylcellulose) (HPC)): 95 % of control; T/C [20]: 110 % of control; T/C [21]: 105 % of control

How did the T/C [20] turn out when `CN(C)c1cc(Br)c(C=O)cc1[N+](=O)[O-]` was run?
The T/C was 95 % of control.

And the T/C [21]?
Its T/C is 95 % of control.

And the T/C (dose: 400.0 mg/kg/injection, schedule: Q04DX003 (ip), vehicle: Klucel (hydroxypropylcellulose) (HPC))?
The T/C was 100 % of control.

Which T/C [18] does the source give for `CC(C)C(=O)OCC1OC(n2cnc3c(=S)nc(N)[nH]c32)C(OC(=O)C(C)C)C1OC(=O)C(C)C` (configuration not stated) here?
The T/C was 92 % of control.

What does the source list for `CCCCCCCCCCCCCCCCS(=O)(=O)CCO`?
T/C [1]: 104 % of control; T/C [2]: 91 % of control

For `CCN1C(=O)CC(=O)N(CC)C1=S`, which T/C (dose: 50.0 mg/kg/injection, schedule: Q01DX009 (ip), vehicle: Klucel (hydroxypropylcellulose) (HPC)) is on record?
Its T/C is 95 % of control.

What about the T/C (dose: 100.0 mg/kg/injection, schedule: Q01DX009 (ip), vehicle: Klucel (hydroxypropylcellulose) (HPC)) of the same compound?
Its T/C is 91 % of control.

What about the T/C [20] of the same compound?
The T/C was 96 % of control.

What about the T/C (dose: 200.0 mg/kg/injection, schedule: Q01DX009 (ip), vehicle: Klucel (hydroxypropylcellulose) (HPC)) of the same compound?
Its T/C is 104 % of control.

What about the T/C [21] of the same compound?
Its T/C is 92 % of control.
